In ChEMBL document CHEMBL1944517, “New inhibitors of dihydroorotate dehydrogenase (DHODH) based on the 4-hydroxy-1,2,5-oxadiazol-3-yl (hydroxyfurazanyl) scaffold” (Eur J Med Chem, 2012):

Biological target: Dihydroorotate dehydrogenase (quinone), mitochondrial (Rattus norvegicus, UniProt Q63707)
Test: Inhibition of dihydroorotate dehydrogenase in Wistar rat liver mitochondrial/microsomal membranes measured for 5 mins by 2,6-dichlorophenolindophenol reduction-based spectrophotometry
Assay type: cell membranes, Membrane

Chain of Dihydroorotate dehydrogenase (quinone), mitochondrial (Q63707 whole entry): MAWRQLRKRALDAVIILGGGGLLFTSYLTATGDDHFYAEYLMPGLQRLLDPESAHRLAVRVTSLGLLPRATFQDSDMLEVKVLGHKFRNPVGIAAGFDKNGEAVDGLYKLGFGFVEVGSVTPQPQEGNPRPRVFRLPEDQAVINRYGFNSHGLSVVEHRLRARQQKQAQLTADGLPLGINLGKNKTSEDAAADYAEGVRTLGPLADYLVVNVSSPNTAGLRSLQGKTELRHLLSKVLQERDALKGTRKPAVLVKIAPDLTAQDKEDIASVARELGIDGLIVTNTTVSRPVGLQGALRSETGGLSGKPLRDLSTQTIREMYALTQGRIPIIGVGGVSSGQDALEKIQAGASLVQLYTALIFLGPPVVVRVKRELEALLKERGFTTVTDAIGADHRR

| SMILES | IC50 [nM] |
| --- | --- |
| O=C(Nc1c(F)cc(-c2cccc(C(F)(F)F)c2)cc1F)c1nonc1O | 870 |
| O=C(Nc1c(F)cc(-c2ccc(C(F)(F)F)cc2)cc1F)c1nonc1O | 2300 |
| O=C(Nc1ccc(C(F)(F)F)cc1)c1nonc1O | 4300 |
| O=C(Nc1ccccc1-c1ccccc1)c1no[nH]c1=O | 45000 |
| O=C(Nc1ccc(-c2cccc(C(F)(F)F)c2)cc1)c1nonc1O | 25000 |
| O=C(Nc1ccc(-c2ccccc2)cc1)c1nonc1O | 11000 |
| O=C(Nc1c(F)cc(-c2ccccc2)cc1F)c1no[nH]c1=O | 880 |
| O=C(Nc1ccc(-c2ccc(C(F)(F)F)cc2)cc1)c1nonc1O | 49000 |

Now those with a lower IC50, led by results:

| IC50 [nM] | SMILES |
| --- | --- |
| 490 | O=C(Nc1c(F)c(F)c(-c2ccc(C(F)(F)F)cc2)c(F)c1F)c1no[nH]c1=O |
| 120 | O=C(Nc1c(F)c(F)c(-c2cccc(C(F)(F)F)c2)c(F)c1F)c1nonc1O |
| 66 | O=C(Nc1c(F)c(F)c(-c2ccccc2)c(F)c1F)c1no[nH]c1=O |
| 50 | O=C(Nc1c(F)c(F)c(-c2cccc(OC(F)(F)F)c2)c(F)c1F)c1no[nH]c1=O |
